Where two headings read alike, the source gives them in different places.
How the values were obtained:
[1] = system: Candida albicans ATCC 10231; assay: Activity against Candida strains, two-fold dilution method; type: cell-based; conditions: for MIC: Candida albicans, ATCC10231, 20 h
Protocol: (§1) This set of experiments included also one strain each of two other Candida species, Candida tropicalis and Candida kruzei. The M.I.C. were determined by the two-fold dilution method in buffered (0.01 M phosphate buffer, pH 7.4) yeast nitrogen base medium (Difco) supplemented with 1.5 g/liter asparagine in microtiter trays. Inocula were approximately 10^4 colony forming units/ml. Incubation was for 20 h at 30° C. Purpuromycin was dissolved in DMSO and added to the cultures as above.

[2] = system: Candida albicans SKF 2270; assay: as above; type: cell-based; conditions: for MIC: Candida albicans, SKF2270, 20 h
Protocol: as §1

[3] = comparative tests, antibacterial agents, read-out: M.I.C.
[4] = comparative tests, antibacterial agents

| Compound | MIC [1, 3] [µg/mL] | MIC [2, 3] [µg/mL] | MIC [1] [µg/mL] | MIC [2] [µg/mL] | further results |
| --- | --- | --- | --- | --- | --- |
| CC1=C(C(=O)O)N2C(=O)[C@@H](NC(=O)[C@H](N)c3ccccc3)[C@H]2SC1 [cefalexin] | > 128 | > 128 |  |  |  |
| CO[C@@]1(NC(=O)Cc2cccs2)C(=O)N2C(C(=O)O)=C(COC(N)=O)CS[C@@H]21 [cefoxitin] | > 128 | > 128 |  |  |  |
| O=C(Cc1cccs1)N[C@@H]1C(=O)N2C(C(=O)[O-])=C(C[n+]3ccccc3)CS[C@H]12 [cephaloridine] | > 128 | > 128 |  |  |  |
| O=C(N[C@H](CO)[C@H](O)c1ccc([N+](=O)[O-])cc1)C(Cl)Cl [chloramphenicol] |  |  | > 128 | > 128 |  |
| CC[C@H]1OC(=O)[C@H](C)[C@@H](O[C@H]2C[C@@](C)(OC)[C@@H](O)[C@H](C)O2)[C@H](C)[C@@H](O[C@@H]2O[C@H](C)C[C@H](N(C)C)[C@H]2O)[C@](C)(O)C[C@@H](C)C(=O)[C@H](C)[C@@H](O)[C@]1(C)O [erythromycin] |  |  | > 128 | > 128 |  |
| CC1(C)S[C@@H]2[C@H](NC(=O)Cc3ccccc3)C(=O)N2[C@H]1C(=O)O [penicillin G] |  |  | > 128 | > 128 |  |
| CN[C@@H]1[C@H](O)[C@H](NC)[C@H]2O[C@@]3(O)C(=O)C[C@@H](C)O[C@H]3O[C@@H]2[C@H]1O [spectinomycin] | > 128 | > 128 |  |  |  |
| gentamicin |  |  |  |  | M.I.C. [1, 4]: higher than 128 microgram/ml; M.I.C. [2, 4]: higher than 128 microgram/ml |

— patent US5118705A, “Water soluble salts of purpuromycin and pharmaceutical formulations thereof” (Gruppo Lepetit S.p.A., priority 1990, dated 1992)
